{"source": "patent US20240285513A1", "about": "“TOPICAL COMPOSITION AGAINST FINE LINES AND WRINKLES” (priority 2021, published 2024)", "details_in_all_cases": "human", "key": {"[1]": {"system": "muscle contraction in the glabella region", "experiment": "In vivo clinical study (Example 6): electromyography (EMG) muscle response"}, "[2]": {"system": "fine lines and wrinkles, glabella area", "experiment": "In vivo clinical study (Example 6): clinical grading of fine lines and wrinkles"}, "[3]": {"system": "muscle contraction in the glabella region", "experiment": "Comparative in vivo clinical study (Example 7): EMG muscle response with or without micro-roller", "text": "(§1) The purpose of the comparative in vivo clinical study was to evaluate the efficacy of a combination of the three extracts for muscle relaxation and wrinkle reduction over four weeks of twice-daily application on Experimental Group 1 participants using a micro-roller (n=33) versus application on Experimental Group 2 participants without using a micro-roller (n=30). The combination of the three extracts was placed in a dermatologically acceptable vehicle as the test product. The dermatologically acceptable vehicle was designed to test the efficacy of the combination of the three extracts when applied with a micro-roller versus application without a micro-roller. Study participants in Experimental Group 1 used a 1.0 mm microroller. Study participants applied the composition containing the three extracts between their eyebrows in the morning and the evening after cleansing their face with a personal cleanser. For Experimental Group 1, study participants used the micro-roller 3 times per week in the evenings by rolling the micro-roller back and forth 4 to 5 times between eyebrows changing directions with each pass. […] The amounts of each extract used in the dermatologically acceptable vehicle was Rosmarinus officinalis leaf extract at 1 wt. %, Lavendula stoechas extract at 2 wt. %, and Acmella oleracea extract at 2 wt. %. […]"}, "[4]": {"system": "fine lines and wrinkles, glabella area", "experiment": "Comparative in vivo clinical study (Example 7): clinical grading of fine lines and wrinkles", "text": "as §1"}}, "note": "Where “and” joins values, the source holds several entries; their conditions need not be identical. Identical values can stand only once. Marks after values point to notes of the source that are not given here.", "data": [{"substance": "onabotulinumtoxinA [BoTox]", "values": [{"measurement": "% EMG Response (AUC)", "setting": "[1]", "value": "58%* and 40%*"}, {"measurement": "% Clinical Improvement of Wrinkles", "setting": "[2]", "value": "31%* and 35%*"}, {"measurement": "% EMG Response (AUC)", "setting": "[3]", "value": "58%* and 40%*"}, {"measurement": "% Clinical Improvement of Wrinkles", "setting": "[4]", "value": "31%* and 35%*"}]}]}
